Like-named read-outs stand apart in the source and are kept apart here.

Type in all cases: cell-based
In test [1] the test system is RSV strain A2. In words: RSV HEp-2 EC50 (infectious cytopathic cell protection assay). The settings on record: HEp-2 cells, RSV A2, 4 days, read-out: RSV HEp-2 EC50. The gist of the method: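 HEp-2 cells mixed with titered RSV A2 at 50,000 cells/ml were added to plates holding 3-fold serial compound dilutions in DMSO, then incubated 4 days at 37° C. Cytoprotection was read as cell viability by CellTiter-Glo luminescence and converted to percent inhibition against 0% and 100% inhibition controls.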

Test [2] concerns RSV A2. Description: RSV NHBE EC50 (RSV A2 antiviral assay in normal human bronchial epithelial cells). The settings on record: NHBE cells, RSV A2, 4 days, read-out: RSV NHBE EC50.
Test [3] concerns HRV16. Description: HRV16 HELA EC50 (cytopathic effect in H1-HeLa cells). A digest of the protocol:
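H1-HeLa cells seeded one day before, given 3-fold serial compound dilutions in triplicate just prior to infection with pre-titrated virus. Incubated 96 h at 33 °C/5% CO2; protection from cytopathic effect read as viability by CellTiter-Glo luminescence, normalised to infected untreated (0%) and uninfected (100%) controls.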

Test [4] deals with DENV2 replicon. In words: DENV-2 Huh-7 Rep EC50 (replicon luminescence). As to conditions: read-out: DENV-2 Huh-7 Rep EC50. A digest of the protocol: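 Huh-7 cells carrying a DENV2 replicon, 5,000 cells/well, were incubated with dosed compounds for 48 h at 37° C. EnduRen live-cell substrate was added 1.5 h before luminescence reading. EC50 came from dose-response against DMSO-only wells.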

Test [5] has as its system Dengue 2, New Guinea strain (NGC). In words: DENV-2 moDC EC50 (qPCR in human monocyte-derived dendritic cells). The settings on record: moDCs. As to the method: Human monocyte-derived dendritic cells (moDCs) were derived from CD14+ monocytes (AllCells) cultured in Human Mo-DC Differentiation medium containing GM-CSF and IL-4 (Miltenyi Biotec). On day 7, moDCs were harvested by mechanical disruption, washed and suspended in serum-free RPMI. moDCs were infected with Vero-derived Dengue 2, New Guinea strain (NGC) at a MOI=0.1 for two hours in serum-free RPMI with gentle agitation at 37° C. Cells were washed and resuspended in 10% serum-containing RPMI (Gibco, supplemented with sodium pyruvate, NEAA, Penicillin-Streptomycin). 10^5 cells were plated in triplicate in 96-well plates with compounds dispensed at graded doses (Hewlett-Packard D300 Digital Dispenser). All wells were normalized to 0.25% DMSO. At 48 hours, cells were washed with 1×PBS and all supernatants removed. Total RNA was extracted using RNEasy 96 plates (Qiagen) and used to generate first-strand cDNA using XLT cDNA 5× Supermix (QuantaBio). cDNA was used as a template in a Taqman qPCR duplex reaction specific to DENV2 viral and GAPDH gene expression. EC50 values were determined using Prism Graphpad software, with normalization to a positive control and no compound negative control wells.

In test [6] the target is HCV replicon 1B. In words: HCV Rep 1B EC50 (replicon luciferase). As to the method:
(§1) Compounds were serially diluted in ten steps of 1:3 dilutions in 384-well plates. All serial dilutions were performed in four replicates per compound within the same 384-well plate. […] To each well of a black polystyrene 384-well plate (Greiner Bio-one, Monroe, NC), 90 μL of cell culture medium (without Geneticin) containing 2000 suspended HCV replicon cells was added with a Biotek μFlow workstation. For compound transfer into cell culture plates, 0.4 μL of compound solution from the compound serial dilution plate was transferred to the cell culture plate on a Biomek FX workstation. The DMSO concentration in the final assay wells was 0.44%. The plates were incubated for 3 days at 37° C. with 5% CO2 and 85% humidity. The HCV replicon assay was a multiplex assay, able to assess both cytotoxicity and antireplicon activity from the same well. The CC50 assay was performed first. The media in the 384-well cell culture plate was aspirated, and the wells were washed four times with 100 μL of PBS each, using a Biotek ELX405 plate washer. A volume of 50 μL of a solution containing 400 nM calcein AM (Anaspec, Fremont, CA) in 1×PBS was added to each well of the plate with a Biotek μFlow workstation. The plate was incubated for 30 min at room temperature before the fluorescence signal (excitation 490 nm, emission 520 nm) was measured with a Perkin-Elmer Envision plate reader. The EC50 assay was performed in the same wells as the CC50 assay. The calcein-PBS solution in the 384-well cell culture plate was aspirated with a Biotek ELX405 plate washer. A volume of 20 μL of Dual-Glo luciferase buffer (Promega, Madison, WI) was added to each well of the plate with a Biotek μFlow Workstation. The plate was incubated for 10 min at room temperature. A volume of 20 μL of a solution containing a 1:100 mixture of Dual-Glo Stop & Glo substrate (Promega, Madison, WI) and Dual-Glo Stop & Glo buffer (Promega, Madison, WI) was added to each well of the plate with a Biotek μFlow Workstation. The plate was then incubated at room temperature for 10 min before the luminescence signal was measured with a Perkin-Elmer Envision Plate Reader.

Test [7] addresses HCV replicon 2A. Description: HCV Rep 2A EC50 (replicon luciferase). Here is the method:
as §1

For test [8], the system named is Dengue serotype 2 New Guinea C (NGC) strain. In words: DENV-2 Huh-7 EC50 (qPCR in Huh7 cells). Here is the method: Huh7 (Human hepatocarcinoma 7) cells were maintained in 10% FCS-containing DMEM complete media. On the day of the assay, cells were trypsinized (0.1% Trypsin-EDTA), washed and infected for 2 hours in serum-free DMEM with Dengue serotype 2 New Guinea C (NGC) strain at MOI=0.1 with gentle agitation at 37° C. After 2 hours, cells were washed with serum-free media and suspended in 10% FCS-containing DMEM (Gibco, supplemented with sodium pyruvate, NEAA, Penicillin-Streptomycin). 10^5 cells were plated in triplicate in 96-well plates with compounds dispensed at graded doses (Hewlett-Packard D300 Digital Dispenser). All wells were normalized to 0.25% DMSO. At 48 hours, cells were washed with 1×PBS and all supernatants removed. Total RNA was extracted using RNEasy 96 plates (Qiagen) and used to generate first-strand cDNA using XLT cDNA 5×Supermix (QuantaBio). cDNA was used as a template in a Taqman qPCR duplex reaction specific to DENV2 viral and GAPDH gene expression. EC50 values were determined using Prism Graphpad software, with normalization to a positive control and no compound negative control wells.

[9] abbreviates: human respiratory syncytial virus, HEp-2, 96 h.
The mark [10] stands for this setting: human respiratory syncytial virus, NHBE, 96 h.
Where [11] appears, read: 96 h, H1-HeLa cells, 33° C., read-out: HRV16 HELA EC50.
The mark [12] stands for this setting: Dengue virus, DENV2, Huh-7, 48 h, Huh-7 replicon cells, 48 hours.
Where [13] appears, read: Dengue virus, DENV2, Dendritic cell, 48 h.
Setting [14] is: human respiratory syncytial virus, 96 h.
Where [15] appears, read: H1-HeLa cells, 96 h, 33° C.; read-out: HRV16 HELA EC50.
Setting [16] is: Dengue virus, DENV2, Huh-7, 48 h.
[17] abbreviates: replicon cells, 3 days, read-out: HCV Rep 1B EC50.
[18] abbreviates: replicon cells, 3 days, read-out: HCV Rep 2A EC50.

As to `CCCCCCCCCCCC(=O)Nc1ncnn2c([C@@H]3O[C@](C#N)(CO[P@@](=O)(N[C@@H](C)C(=O)OC4CCCCC4)Oc4ccccc4)[C@@H](O)[C@H]3O)ccc12` [Example 232, Cyclohexyl ((S)-(((2R,3S,4R,5S)-2-cyano-5-(4-dodecanamidopyrrolo[2,1-f][1,2,4]triazin-7-yl)-3,4-dihydroxytetrahydrofuran-2-yl)methoxy)(phenoxy)phosphoryl)-L-alaninate], the EC50 in test [1] (setting [9]) was found to be 0.061 µM; in test [2] (setting [10]) it was 0.098 µM; in test [3] (setting [11]), 0.479 µM; in test [4] (setting [12]) it was 5.32 µM; in test [5] (setting [13]), 1.09 µM.
Take `CCC(CC)COC(=O)[C@H](C)NP(=O)(N[C@@H](C)C(=O)OCC(CC)CC)OC[C@@]1(C#N)O[C@@H](c2ccc3c(N)ncnn23)[C@H](O)[C@@H]1O` [Example 7]: the EC50 was 1.86 µM in test [1] (setting [14]); 0.265 µM in test [2] (setting [14]); 5.94 µM in test [3] (setting [15]); 32.9 µM in test [4] (setting [16]); over 25 µM in test [5] (Dengue virus, DENV2, Dendritic cell, 48 hours).
On to `CC(NP(=O)(OCC1(C#N)OC(c2ccc3c(N)ncnn23)C(O)C1O)Oc1ccccc1)C(=O)OC1CCOC1` (single isomer, unassigned) [Example 70], for which the EC50 in test [3] (setting [15]) is 5.23 µM; in test [4] (Huh-7 replicon cells, 48 hours), over 100 µM; in test [6] (setting [17]), 9.43 µM; in test [7] (setting [18]), 32.7 µM.
Regarding `CCC(CC)COC(=O)[C@H](C)NP(=O)(N[C@@H](C)C(=O)OC1CCCCC1)OC[C@@]1(C#N)O[C@@H](c2ccc3c(N)ncnn23)[C@H](O)[C@@H]1O` (single isomer, unassigned) [Example 227], the EC50 in test [1] stood at 0.614 µM; in test [2], 0.126 µM; in test [3] (setting [15]), 4.94 µM; in test [4] (Huh-7 replicon cells, 48 hours), 39.4 µM; in test [6] (setting [17]), 10.2 µM; in test [7] (setting [18]) it was 4.76 µM.
In the case of `CC(NP(=O)(OCC1(C#N)OC(c2ccc3c(N)ncnn23)C(O)C1O)Oc1ccccc1)C(=O)OC1CCOC1` (single isomer, unassigned) [Example 69], the EC50 in test [3] (setting [15]) is 7.33 µM; in test [4] (Huh-7 replicon cells, 48 hours), over 100 µM; in test [6] (setting [17]), 25.3 µM; in test [7] (setting [18]), 50.3 µM.
Turning to `C[C@H](NP(=O)(OC[C@@]1(C#N)O[C@@H](c2ccc3c(N)ncnn23)[C@H](O)[C@@H]1O)Oc1ccccc1)C(=O)O[C@H]1CCOC1` (single isomer, unassigned) [Example 66], the EC50 in test [4] (setting [12]) is over 100 µM; in test [6] (Hepatitis C virus, 72 h, read-out: HCV Rep 1B EC50, replicon cells, 3 days), 14.9 µM; in test [7] (Hepatitis C virus, 72 h, read-out: HCV Rep 2A EC50, replicon cells, 3 days), 21.8 µM.
In the case of `CCCCOC(=O)[C@H](C)N[P@](=O)(OC[C@@]1(C#N)O[C@@H](c2ccc3c(N)ncnn23)[C@H](O)[C@@H]1O)Oc1ccccc1` [Example 54, butyl ((S)-(((2R,3S,4R,5S)-5-(4-aminopyrrolo[2,1-f][1,2,4]triazin-7-yl)-2-cyano-3,4-dihydroxytetrahydrofuran-2-yl)methoxy)(phenoxy)phosphoryl)-L-alaninate], the EC50 in test [2] (setting [10]) is 0.105 µM; in test [3] (setting [11]), 0.378 µM; in test [4] (setting [12]) it was 7.4 µM; in test [5] (setting [13]) it was 0.804 µM; in test [8] (setting [16]), 2.59 µM.
On to `CCC(C)(C)COC(=O)[C@H](C)NP(=O)(OC[C@@]1(C#N)O[C@@H](c2ccc3c(N)ncnn23)[C@H](O)[C@@H]1O)Oc1ccccc1` (single isomer, unassigned) [Example 256], for which the EC50 in test [1] was 0.054 µM; in test [2] it was 0.43 µM; in test [4] (Huh-7 replicon cells, 48 hours) it was over 100 µM; in test [5] (48 hours) it was 0.103 µM; in test [8] (48 hours), over 18.1 µM.
With `CCC(C)(C)COC(=O)[C@H](C)NP(=O)(OC[C@@]1(C#N)O[C@@H](c2ccc3c(N)ncnn23)[C@H](O)[C@@H]1O)Oc1ccccc1` (single isomer, unassigned) [Example 255], the EC50 stood at 0.018 µM in test [1]; 0.043 µM in test [2]; 4.95 µM in test [4] (Huh-7 replicon cells, 48 hours); 0.086 µM in test [5] (setting [13]); 0.824 µM in test [8] (48 hours).
As for `CC(C)(C)C(=O)OCCNP(=O)(OC[C@@]1(C#N)O[C@@H](c2ccc3c(N)ncnn23)[C@H](O)[C@@H]1O)Oc1ccccc1` (mixture of isomers) [Example 11, 2-(((((2R,3S,4R,5S)-5-(4-aminopyrrolo[2,1-f][1,2,4]triazin-7-yl)-2-cyano-3,4-dihydroxytetrahydrofuran-2-yl)methoxy)(phenoxy)phosphoryl)amino)ethyl pivalate], the concentration giving a half-maximal response (EC50) in test [1] (setting [9]) was 0.269 µM; in test [2] (setting [10]), 0.054 µM; in test [3] (setting [11]), 1.2 µM; in test [4] (setting [12]) it was over 50 µM; in test [8] (setting [16]) it was 3.5 µM.
For the compound `COCCCOC(=O)[C@H](C)NP(=O)(OC[C@@]1(C#N)O[C@@H](c2ccc3c(N)ncnn23)[C@H](O)[C@@H]1O)Oc1ccccc1` (single isomer, unassigned) [Example 60], the EC50 stood at 0.583 µM in test [1]; 0.361 µM in test [2]; 41.3 µM in test [4] (Huh-7 replicon cells, 48 hours); 6.82 µM in test [8] (48 hours); 6.08 µM in test [6] (setting [17]); 10.8 µM in test [7] (setting [18]).

For the origin of these results see patent publication US20230295201A1 (Gilead Sciences, Inc., priority 2020, published 2023).
